Laboratory results taken from ChEMBL document CHEMBL1143562 (J Med Chem, 2005).
The source made the active and inactive calls. No cut-off for these calls is given here.

What was measured:
Rattus norvegicus [1] = test: Inhibition of carrageenan-induced thermal hyperalgesia in rats 1 hr after administration of a 30 mg/kg dose of test compound; NA-not active; type: functional, organism-based; design: dose 30 mg/kg
[2] = Inhibition of [3H]leucine uptake into CHO cells by L-amino acid transporters; type: functional, cell-based; settings: Cricetulus griseus
Rattus norvegicus [3] = test: The ability of 30 mg/kg oral dose of compound to restore punished drinking behavior in rats expressed as percent reference activity (PRA); NA-not active; type: functional, organism-based; design: dose 30 mg/kg
Mus musculus = test: Percent protection of DBA/2 mice from audiogenically induced tonic seizures at a dose of 30 mg/kg of test compound; type: functional
[4] = Inhibition of [3H]gabapentin binding to pig brain membranes; design: species or system Sus scrofa, Membrane
Rattus norvegicus [5] = test: Inhibition of carrageenan-induced thermal hyperalgesia in rats 1 hr after administration of a 30 mg/kg dose of test compound; type: functional
Rattus norvegicus [6] = test: The ability of 30 mg/kg oral dose of compound to restore punished drinking behavior in rats expressed as percent reference activity (PRA); type: functional

With `CC(C)C[C@@H](CC(=O)O)[C@H](C)N` the CITH (Rattus norvegicus [1]) was “inactive”, the IC50 [2] was greater than 10000 µM and the “WLC PRA” value (Rattus norvegicus [3]) was “inactive”. The Protection (Mus musculus) was 0% and the IC50 [4] was 0.039 µM.
With `NCC1(CC(=O)O)CCCCC1` [GABAPENTIN] the CITH (Rattus norvegicus [5]) was 48, the IC50 [2] was 30 µM and the Protection (Mus musculus) was 100%. For the same compound, the “WLC PRA” value (Rattus norvegicus [6]) was 60 and the IC50 [4] was 0.07 µM.
In the case of `CC(C)C[C@@H](CN)CC(=O)O`, the CITH (Rattus norvegicus [1]) is reported as “inactive”, the IC50 [2] is reported as 355 µM and the “WLC PRA” value (Rattus norvegicus [3]) is reported as “inactive”. The Protection (Mus musculus) was 0%.
For `CCCC[C@@H](CC(=O)O)[C@@H](C)N`, the CITH (Rattus norvegicus [1]) was “inactive”, the IC50 [2] was greater than 8300 µM and the “WLC PRA” value (Rattus norvegicus [3]) was “inactive”. The Protection (Mus musculus) was 0% and the IC50 [4] was 1.03 µM.
In the case of `CC(C)CC(C)(CN)CC(=O)O` (stereo not drawn), the CITH (Rattus norvegicus [1]) is reported as “inactive”, the IC50 [2] is reported as 89 µM and the “WLC PRA” value (Rattus norvegicus [3]) is reported as “inactive”. For the same compound, the Protection (Mus musculus) was 0%.
With `CCC(CC)CC(CN)CC(=O)O` (stereo not drawn) the CITH (Rattus norvegicus [1]) was “inactive”, the IC50 [2] was 142 µM and the “WLC PRA” value (Rattus norvegicus [3]) was “inactive”. The Protection (Mus musculus) was 0% and the IC50 [4] was 1.33 µM.
With `CC(C)C[C@@H](CCN)C(=O)O` the IC50 [2] was greater than 10000 µM, the “WLC PRA” value (Rattus norvegicus [3]) was “inactive” and the Protection (Mus musculus) was 0%. The IC50 [4] was 2.06 µM.
With `CCC[C@@H](CC(=O)O)[C@@H](C)N` the CITH (Rattus norvegicus [1]) was “inactive”, the IC50 [2] was greater than 8300 µM and the “WLC PRA” value (Rattus norvegicus [3]) was “inactive”. It also gave a Protection (Mus musculus) of 0% and an IC50 [4] of 1.29 µM.
With `CC(C)C[C@H](CN)CC(=O)O` [PREGABALIN] the CITH (Rattus norvegicus [5]) was 52, the IC50 [2] was 158 µM and the Protection (Mus musculus) was 100%. The “WLC PRA” value (Rattus norvegicus [6]) was 100.
With `CCC(CN)(CC(=O)O)CC(C)C` (stereo not drawn) the IC50 [2] was 60 µM, the “WLC PRA” value (Rattus norvegicus [3]) was “inactive” and the Protection (Mus musculus) was 20%. The IC50 [4] was 8.56 µM.
`CC(C)[C@@H](C)[C@H](CN)CC(=O)O` showed a CITH (Rattus norvegicus [5]) of 71, an IC50 [2] of 157 µM and a Protection (Mus musculus) of 100%. For the same compound, the “WLC PRA” value (Rattus norvegicus [6]) was 152 and the IC50 [4] was 0.021 µM.
With `CC(C)C[C@@H](CC(=O)O)[C@@H](C)N` the CITH (Rattus norvegicus [1]) was “inactive”, the IC50 [2] was greater than 100000 µM and the “WLC PRA” value (Rattus norvegicus [3]) was “inactive”. For the same compound, the Protection (Mus musculus) was 0% and the IC50 [4] was 0.48 µM.
With `CC(C)[C@H](C)[C@H](CN)CC(=O)O` the CITH (Rattus norvegicus [1]) was “inactive”, the IC50 [2] was 28 µM and the “WLC PRA” value (Rattus norvegicus [3]) was “inactive”. It also gave a Protection (Mus musculus) of 20%.
For `CC(C)C[C@H](CN)[C@H](C)C(=O)O`, the IC50 [2] was 117 µM, the “WLC PRA” value (Rattus norvegicus [3]) was “inactive” and the Protection (Mus musculus) was 0%. It also gave an IC50 [4] greater than 10 µM.
For `CCC(CC)C(CN)CC(=O)O` (stereo not drawn), the CITH (Rattus norvegicus [1]) was “inactive”, the IC50 [2] was 146 µM and the “WLC PRA” value (Rattus norvegicus [3]) was “inactive”. The Protection (Mus musculus) was 20% and the IC50 [4] was 0.203 µM.
